Assay results reported in ChEMBL document CHEMBL3739399, “Discovery of Indazole Derivatives as a Novel Class of Bacterial Gyrase B Inhibitors” (ACS Med Chem Lett, 2015).
Values after ≈ are worked out from the molar mass of the structure shown.

Assays:
[1] = molecular target: DNA gyrase subunit B (Staphylococcus aureus, UniProt P0A0K8); experiment: Inhibition of Staphylococcus aureus Gyrase B ATPase activity by fluorescence analysis
[2] = test system: Streptococcus pneumoniae; experiment: Antibacterial activity against Streptococcus pneumoniae for 18 to 24 hrs by broth microdilution method; type: functional
[3] = test system: Staphylococcus aureus; experiment: Antibacterial activity against methicillin-resistant Staphylococcus aureus 1118 for 18 to 20 hrs by broth microdilution method; type: functional
[4] = test system: Enterococcus faecium; experiment: Antibacterial activity against Enterococcus faecium for 18 to 20 hrs by broth microdilution method; type: functional
[5] = test system: Staphylococcus aureus; experiment: Antibacterial activity against methicillin-sensitive Staphylococcus aureus 42 for 18 to 20 hrs by broth microdilution method; type: functional
[6] = Inhibition of Staphylococcus aureus topoisomerase 4 by fluorescence analysis
[7] = test system: Enterococcus faecalis; experiment: Antibacterial activity against Enterococcus faecalis for 18 to 20 hrs by broth microdilution method; type: functional
[8] = test system: Staphylococcus aureus; experiment: Antibacterial activity against methicillin and ciprofloxacin-resistant Staphylococcus aureus 1721 for 18 to 20 hrs by broth microdilution method; type: functional
[9] = test system: Streptococcus pneumoniae; experiment: Antibacterial activity against Streptococcus pneumoniae 402 infected in sc dosed mouse assessed as reduction in 2 log CFU in lung compound administered as BID for 1 day measured 24 hrs after last dose; type: functional
[10] = test system: Streptococcus pneumoniae; experiment: Antibacterial activity against Streptococcus pneumoniae 402 infected in sc dosed mouse assessed as reduction in 3 log CFU in lung compound administered as BID for 1 day measured 24 hrs after last dose; type: functional

Sequence of DNA gyrase subunit B (P0A0K8 whole entry): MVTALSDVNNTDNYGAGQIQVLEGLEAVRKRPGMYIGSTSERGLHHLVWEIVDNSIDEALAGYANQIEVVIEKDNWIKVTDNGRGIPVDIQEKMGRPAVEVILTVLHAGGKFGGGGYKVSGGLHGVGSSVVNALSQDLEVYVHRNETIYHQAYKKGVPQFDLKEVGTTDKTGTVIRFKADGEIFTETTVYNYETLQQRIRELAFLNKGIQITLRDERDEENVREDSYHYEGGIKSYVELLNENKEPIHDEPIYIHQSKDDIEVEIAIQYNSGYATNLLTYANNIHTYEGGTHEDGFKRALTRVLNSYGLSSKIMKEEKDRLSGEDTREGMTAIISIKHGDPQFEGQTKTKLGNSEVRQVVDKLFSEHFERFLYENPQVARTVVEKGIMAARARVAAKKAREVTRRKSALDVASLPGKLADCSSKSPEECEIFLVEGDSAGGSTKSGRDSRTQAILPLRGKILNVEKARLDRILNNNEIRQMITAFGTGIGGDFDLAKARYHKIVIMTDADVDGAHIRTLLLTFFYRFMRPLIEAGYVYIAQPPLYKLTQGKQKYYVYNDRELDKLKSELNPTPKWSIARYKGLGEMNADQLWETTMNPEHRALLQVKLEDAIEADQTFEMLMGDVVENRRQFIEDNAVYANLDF

| Compound | IC50 [1] | MIC [2] | MIC [3] | MIC [4] | MIC [5] | IC50 [6] | MIC [7] | MIC [8] | ED [9] | ED [10] |
| --- | --- | --- | --- | --- | --- | --- | --- | --- | --- | --- |
| CCCc1cccc2c(-c3cnc(-c4ccnc(C(=O)O)c4)s3)n[nH]c12 | 11 nM | 1 µg/mL (≈ 2.74 µM) | > 8 µg/mL | > 8 µg/mL | > 8 µg/mL | > 1000 nM | > 8 µg/mL | > 8 µg/mL | – | – |
| CCCc1c(O)ccc2c(-c3cnc(-c4cnc(C(=O)O)c(O)c4)s3)n[nH]c12 | 13 nM | 0.25 µg/mL (≈ 0.631 µM) | 4 µg/mL (≈ 10.1 µM) | 0.25 µg/mL (≈ 0.631 µM) | 1 µg/mL (≈ 2.52 µM) | – | 0.125 µg/mL (≈ 0.315 µM) | 2 µg/mL (≈ 5.05 µM) | – | – |
| CCCc1cccc2c(-c3cnc(-c4ccc(C(=O)NCCN5CCCCC5)nc4)s3)n[nH]c12 | 20 nM | > 8 µg/mL | 1 µg/mL (≈ 2.11 µM) | > 8 µg/mL | 2 µg/mL (≈ 4.21 µM) | > 2000 nM | > 8 µg/mL | 2 µg/mL (≈ 4.21 µM) | – | – |
| CCCc1cccc2c(-c3cnc(-c4ccc(CO)nc4)s3)n[nH]c12 | 15 nM | 8 µg/mL (≈ 22.8 µM) | 0.06 µg/mL (≈ 0.171 µM) | > 8 µg/mL | 0.06 µg/mL (≈ 0.171 µM) | > 4000 nM | > 8 µg/mL | 0.06 µg/mL (≈ 0.171 µM) | – | – |
| CCCc1cccc2c(-c3cnc(-c4ccc(COP(=O)(O)O)nc4)s3)n[nH]c12 | 9 nM | 2 µg/mL (≈ 4.65 µM) | 0.25 µg/mL (≈ 0.581 µM) | 2 µg/mL (≈ 4.65 µM) | 0.25 µg/mL (≈ 0.581 µM) | 147 nM | > 8 µg/mL | 0.5 µg/mL (≈ 1.16 µM) | – | – |
| CCCc1cccc2c(-c3cnc(-c4cnc(C(=O)O)c(O)c4)s3)n[nH]c12 | 11 nM | 0.5 µg/mL (≈ 1.31 µM) | 0.06 µg/mL (≈ 0.158 µM) | 0.125 µg/mL (≈ 0.329 µM) | 0.125 µg/mL (≈ 0.329 µM) | 60 nM | 0.125 µg/mL (≈ 0.329 µM) | 0.125 µg/mL (≈ 0.329 µM) | – | – |
| CCCc1cccc2c(-c3cncs3)n[nH]c12 | 6500 nM | > 32 µg/mL | > 32 µg/mL | > 32 µg/mL | > 32 µg/mL | – | > 32 µg/mL | > 32 µg/mL | – | – |
| CCOc1cccc2c(-c3cnc(-c4ccc(C(=O)O)c(F)c4)s3)n[nH]c12 | < 8 nM | 1 µg/mL (≈ 2.61 µM) | 0.5 µg/mL (≈ 1.3 µM) | 2 µg/mL (≈ 5.22 µM) | 0.5 µg/mL (≈ 1.3 µM) | – | 1 µg/mL (≈ 2.61 µM) | 1 µg/mL (≈ 2.61 µM) | – | – |
| CCCOc1nccc2c(-c3cnc(-c4ccc(C(=O)O)nc4)s3)n[nH]c12 | < 8 nM | 0.06 µg/mL (≈ 0.157 µM) | 4 µg/mL (≈ 10.5 µM) | 2 µg/mL (≈ 5.24 µM) | 4 µg/mL (≈ 10.5 µM) | – | 2 µg/mL (≈ 5.24 µM) | 8 µg/mL (≈ 21 µM) | – | – |
| CCCc1cccc2c(-c3cnc(-c4ccc(C(=O)OC)nc4)s3)n[nH]c12 | 29 nM | 0.125 µg/mL (≈ 0.33 µM) | 1 µg/mL (≈ 2.64 µM) | > 8 µg/mL | 0.5 µg/mL (≈ 1.32 µM) | > 10000 nM | > 8 µg/mL | 2 µg/mL (≈ 5.28 µM) | – | – |
| CCCOc1nccc2c(-c3cnc(-c4ccc(CO)nc4)s3)n[nH]c12 | < 8 nM | 0.25 µg/mL (≈ 0.68 µM) | 0.25 µg/mL (≈ 0.68 µM) | 1 µg/mL (≈ 2.72 µM) | 0.125 µg/mL (≈ 0.34 µM) | – | 0.25 µg/mL (≈ 0.68 µM) | 0.125 µg/mL (≈ 0.34 µM) | – | – |
| CCCc1cccc2c(-c3cnc(-c4cnc(C(=O)OC)c(O)c4)s3)n[nH]c12 | < 8 nM | 1 µg/mL (≈ 2.54 µM) | 1 µg/mL (≈ 2.54 µM) | 2 µg/mL (≈ 5.07 µM) | 1 µg/mL (≈ 2.54 µM) | 68 nM | 1 µg/mL (≈ 2.54 µM) | 2 µg/mL (≈ 5.07 µM) | – | – |
| CCCc1cccc2c(-c3cnc(-c4cnc(C(=O)O)c(F)c4)s3)n[nH]c12 | < 8 nM | 0.25 µg/mL (≈ 0.654 µM) | 0.125 µg/mL (≈ 0.327 µM) | 0.25 µg/mL (≈ 0.654 µM) | 0.125 µg/mL (≈ 0.327 µM) | 24 nM | 0.25 µg/mL (≈ 0.654 µM) | 0.25 µg/mL (≈ 0.654 µM) | – | – |
| CCOc1nccc2c(-c3cnc(-c4cnc(C(=O)O)cc4C)s3)n[nH]c12 | < 8 nM | 0.125 µg/mL (≈ 0.328 µM) | 0.5 µg/mL (≈ 1.31 µM) | 0.5 µg/mL (≈ 1.31 µM) | 0.25 µg/mL (≈ 0.655 µM) | – | 0.25 µg/mL (≈ 0.655 µM) | 0.5 µg/mL (≈ 1.31 µM) | – | – |
| CCCc1cccc2c(-c3cnc(-c4cnc(C(=O)O)c(OC)c4)s3)n[nH]c12 | 14 nM | 1 µg/mL (≈ 2.54 µM) | 1 µg/mL (≈ 2.54 µM) | 4 µg/mL (≈ 10.1 µM) | 1 µg/mL (≈ 2.54 µM) | 115 nM | 2 µg/mL (≈ 5.07 µM) | > 8 µg/mL | – | – |
| C=CCc1cccc2c(-c3cnc(-c4ccc(C(=O)O)nc4)s3)n[nH]c12 | 9 nM | 0.25 µg/mL (≈ 0.69 µM) | 0.03 µg/mL (≈ 0.0828 µM) | 0.125 µg/mL (≈ 0.345 µM) | 0.03 µg/mL (≈ 0.0828 µM) | – | 0.125 µg/mL (≈ 0.345 µM) | 0.06 µg/mL (≈ 0.166 µM) | – | – |
| CCCc1cccc2c(-c3cnc(-c4ccc(CC(=O)O)nc4)s3)n[nH]c12 | 25 nM | 0.5 µg/mL (≈ 1.32 µM) | 0.25 µg/mL (≈ 0.661 µM) | 4 µg/mL (≈ 10.6 µM) | 0.25 µg/mL (≈ 0.661 µM) | 434 nM | 0.5 µg/mL (≈ 1.32 µM) | 0.25 µg/mL (≈ 0.661 µM) | – | – |
| CCCc1cccc2c(-c3cnc(-c4cnc(C(=O)O)cc4C)s3)n[nH]c12 | 12 nM | 0.125 µg/mL (≈ 0.33 µM) | 0.02 µg/mL (≈ 0.0528 µM) | 0.013 µg/mL (≈ 0.0344 µM) | 0.02 µg/mL (≈ 0.0528 µM) | 60 nM | 0.06 µg/mL (≈ 0.159 µM) | 0.03 µg/mL (≈ 0.0793 µM) | – | – |
| CCCc1cccc2c(-c3cnc(-c4ccc(C(=O)O)c(=O)[nH]4)s3)n[nH]c12 | 168 nM | > 8 µg/mL | > 8 µg/mL | > 8 µg/mL | > 8 µg/mL | – | > 8 µg/mL | > 8 µg/mL | – | – |
| CCCOc1nccc2c(-c3cnc(-c4cnc(C(=O)O)cc4C)s3)n[nH]c12 | 52 nM | 0.125 µg/mL (≈ 0.316 µM) | 8 µg/mL (≈ 20.2 µM) | 8 µg/mL (≈ 20.2 µM) | 8 µg/mL (≈ 20.2 µM) | – | 4 µg/mL (≈ 10.1 µM) | 8 µg/mL (≈ 20.2 µM) | – | – |
| CCCc1c(O)ccc2c(-c3cnc(-c4cnc(C(=O)O)cc4C)s3)n[nH]c12 | 8 nM | 0.06 µg/mL (≈ 0.152 µM) | 0.125 µg/mL (≈ 0.317 µM) | 0.25 µg/mL (≈ 0.634 µM) | 0.125 µg/mL (≈ 0.317 µM) | – | 0.06 µg/mL (≈ 0.152 µM) | 0.125 µg/mL (≈ 0.317 µM) | – | – |
| O=C(O)c1ccc(-c2ncc(-c3n[nH]c4c(CC5CC5)cccc34)s2)cn1 | 13 nM | 0.5 µg/mL (≈ 1.33 µM) | 0.05 µg/mL (≈ 0.133 µM) | 4 µg/mL (≈ 10.6 µM) | 0.05 µg/mL (≈ 0.133 µM) | – | 0.125 µg/mL (≈ 0.332 µM) | 0.1 µg/mL (≈ 0.266 µM) | – | – |
| CCCOc1nccc2c(-c3cnc(-c4ccc(COP(=O)([O-])[O-])nc4)s3)n[nH]c12.[Na+].[Na+] | < 8 nM | 1 µg/mL | 8 µg/mL | 8 µg/mL | 8 µg/mL | – | > 8 µg/mL | > 8 µg/mL | – | – |
| CCCc1c(O)ccc2c(-c3cnc(-c4ccc(C(=O)O)c(F)c4)s3)n[nH]c12 | 11 nM | 0.06 µg/mL (≈ 0.151 µM) | 0.25 µg/mL (≈ 0.629 µM) | 0.02 µg/mL (≈ 0.0503 µM) | 0.125 µg/mL (≈ 0.315 µM) | – | 0.02 µg/mL (≈ 0.0503 µM) | 0.25 µg/mL (≈ 0.629 µM) | – | – |
| CCCc1cccc2c(-c3cnc(-c4ccc(C(=O)O)cn4)s3)n[nH]c12 | 49 nM | 8 µg/mL (≈ 22 µM) | > 8 µg/mL | 4 µg/mL (≈ 11 µM) | 8 µg/mL (≈ 22 µM) | 9900 nM | 8 µg/mL (≈ 22 µM) | > 8 µg/mL | – | – |
| COc1c(N2C[C@@H]3CCCN[C@@H]3C2)c(F)cc2c(=O)c(C(=O)O)cn(C3CC3)c12 [MOXIFLOXACIN] | – | 0.06 µg/mL (≈ 0.149 µM) | – | – | – | – | – | – | 28.6 mg/kg | 50.8 mg/kg |
